The values that follow come from patent US20090047655A1, “Method Of Screening Candidate Drug” (priority 2004, published 2009).

A short description of one series: in vivo. The settings on record: mouse, in vivo. The source says:
(§1) As for the chimeric mice, chimeric mice produced by Hiroshima Prefectural Institute of Industrial Science and Technology or PhoenixBio Co., Ltd. were used. To be more specific, mice in which human hepatocytes were engrafted and proliferated in the mouse liver were produced by transplanting human hepatocytes (IVT079, purchased from In Vitro Technology Inc., or BD51, purchased from BD Gentest Inc.) into the spleen of uPA(+/+)/SCID mice, which are mice having hepatic impairment and immunodeficiency. Mice in which 70% or more of the mouse liver had been replaced with human hepatocytes (high-replacement chimeric mice) and low-replacement chimeric mice in which although human hepatocytes had been transplanted, the replacement ratio was almost 0%, or untransplanted mice (mice with no replacement) were used (3 mice in each group). Further, as a control, 3 uPA(−/−)/SCID mice were used.
(§2) The concentration for administration of tolbutamide which is a standard drug for CYP2C9 was […]., and 4.175 mg of tolbutamide was weighed out and suspended in 1 ml of a CMC liquid in an agate mortar, and a 4.175 mg/ml suspension which is 5 times as high as the concentration for administration was prepared.
(§3) To the high-replacement chimeric mice, low-replacement chimeric mice (or mice with no replacement) and uPA(−/−)/SCID mice (3 mice in each group), 5 compounds were simultaneously administered orally by gavage or intravenously. The blood was collected from the tail vein of each mouse in an amount of 15 μl each at 0.25 (only intravenous administration), 0.5, 1, 2, 4 (only oral administration) and 8 hours after administration. Then, the blood was centrifuged at 3,500 rpm for 5 minutes, and the serum (supernatant) was collected and stored in a freezer at −30° C.
(§4) The serum samples were transported to Sumika Chemical Analysis Service, Ltd. while keeping it in dry ice, and subjected to measurement by LC-MS/MS according to the following procedure.
(§5) With regard to a liquid chromatograph, SIL-HTC and LC-10A series (Shimadzu Corporation) were used, and as a column, Synergi 4μ Polar-RP 80A, 150 mm (length)×2.00 mm (inner diameter), 4 μm (Phenomenex Inc.) was used at 30° C. As a mobile phase, methanol/a 10 mmol/l ammonium acetate solution/acetic acid (700/300/2, v/v/v) was used, and a flow rate was set at 0.2 ml/min. An injection volume was set at 2 μl, a measurement time was set at 10 min, and the temperature of an autosampler was set at 4° C. As a mass spectrometer, Tandem Mass Spectrometer API 4000 (Applied Biosystems/MDS SCIEX Inc.) was used. As API interface, Turbo V (ESI probe) was used, and as Ionization mode, Positive ion detection mode was used.
To Eppendorf tubes in which 5 μl of samples to be measured (serum) were contained, 100 μl of methanol was added, and 10 μl of 1 μg/ml of I.S. standard solution was added thereto, and then, the mixtures were thoroughly mixed by an ultrasonic treatment and a vortex mixer. The resulting mixtures were centrifuged (15,000 rpm, 5 min, room temperature), and the resulting supernatants were subjected to centrifugal filtration (10,000 rpm, 2 min, room temperature) with a filter, and the resulting filtrates were used as injection samples for LC-MS/MS.
(§6) The determined values of the drug concentration in the serum were calculated from the peak area ratio obtained by the LC-MS/MS measurement of the samples for addition calibration curve. […] From the graphs, the peak serum concentration (Cmax), half-life (t1/2), area under the curve (AUC), bioavailability and clearance were analyzed, and pharmacokinetics in human was predicted.

The conditions of series [1]: uPA(+/+)/SCID, mouse, in vivo.
Description: as §1, §2, §3, §4, §5
To Eppendorf tubes in which 5 μl of samples to be measured (serum) were contained, 100 μl of methanol was added, and 10 μl of 1 μg/ml of I.S. standard solution was added thereto, and then, the mixtures were thoroughly mixed by an ultrasonic treatment and a vortex mixer. […]
as §6

In another series the test system is CYP2D6. In words: in vivo. The settings on record: uPA(+/+)/SCID, mouse, po. The method, then:
(§7) As for the chimeric mice, chimeric mice produced in PhoenixBio Co., Ltd. were used. To be more specific, 3 mice in which human hepatocytes were engrafted and proliferated in the mouse liver were produced by transplanting human hepatocytes (BD51, purchased from BD Gentist Inc.) into the spleen of uPA(+/+)/SCID mice, which are mice having hepatic impairment and immunodeficiency.
(§8) Paroxetine was dissolved in Milli-Q water (using a bath-type ultrasonic device) and prepared to give a final concentration of 6 mg/ml. The prepared drug was intraperitoneally administered to the mice at a dose of 5 μl/g b.w. (30 mg/kg b.w./day).
(§9) To the high-replacement chimeric mice, paroxetine was intraperitoneally administered for 3 days. Then, in the same manner as in Example 1, 5 compounds were simultaneously administered orally by gavage, the blood was collected over time, and the serum was stored.
(§10) The determination and analysis of drugs in the serum were carried out in the same manner as in Example 1.
(§11) The determined values of the drug concentration in the serum were calculated from the peak area ratio obtained by the LC-MS/MS measurement of the samples for addition calibration curve. […] From the graphs, Cmax, t1/2 and AUC were analyzed.

Another series has as its target CYP1A2 (Homo sapiens, UniProt P05177). Nature of the series: Inhibition of metabolic activity by paroxetine in high-replacement chimeric mouse (marker caffeine). It is filed as in vivo. The settings on record: paroxetine 30 mg/kg b.w./day i.p. for 3 days, donor BD51. The protocol: as §7, §8, §9, §10, §11
For a further series, the target named is T1, CYP2C19 (Homo sapiens, UniProt P33261).
T1 construct: human hepatocytes were engrafted and proliferated in the mouse liver; host or cells: human donor hepatocytes BD51 engrafted in the liver of uPA(+/+)/SCID mice (high-replacement chimeric mice, PhoenixBio)
In words: Inhibition of metabolic activity by paroxetine in high-replacement chimeric mouse (marker omeprazole). It is filed as in vivo. The settings on record: paroxetine 30 mg/kg b.w./day i.p. for 3 days, donor BD51. The method, then: as §7, §8, §9, §10, §11

Another series concerns the target T2, CYP3A4 (Homo sapiens, UniProt P08684).
T2 construct: human hepatocytes were engrafted and proliferated in the mouse liver; host or cells: human donor hepatocytes BD51 engrafted in the liver of uPA(+/+)/SCID mice (high-replacement chimeric mice, PhoenixBio)
Nature of the series: Inhibition of metabolic activity by paroxetine in high-replacement chimeric mouse (marker erythromycin). The settings on record: paroxetine 30 mg/kg b.w./day i.p. for 3 days, donor BD51. It is filed as in vivo. The protocol: as §7, §8, §9, §10, §11

Like-named read-outs stand apart in the source and are kept apart here.

T2 sequence (P08684 whole entry): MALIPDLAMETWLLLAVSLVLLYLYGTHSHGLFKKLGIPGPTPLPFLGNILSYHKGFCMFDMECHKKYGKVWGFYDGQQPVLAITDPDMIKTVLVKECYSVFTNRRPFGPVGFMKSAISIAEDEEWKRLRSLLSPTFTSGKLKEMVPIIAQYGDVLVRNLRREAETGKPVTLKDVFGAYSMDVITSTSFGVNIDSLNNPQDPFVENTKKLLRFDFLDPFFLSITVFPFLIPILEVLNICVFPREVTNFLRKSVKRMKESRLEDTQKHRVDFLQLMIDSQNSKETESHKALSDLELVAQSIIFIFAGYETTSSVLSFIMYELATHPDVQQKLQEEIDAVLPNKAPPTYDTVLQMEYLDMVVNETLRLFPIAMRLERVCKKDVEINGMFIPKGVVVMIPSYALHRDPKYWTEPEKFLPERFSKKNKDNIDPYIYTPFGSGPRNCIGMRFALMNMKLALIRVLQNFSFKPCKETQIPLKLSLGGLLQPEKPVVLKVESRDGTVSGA
Chain of CYP1A2 (P05177 whole entry): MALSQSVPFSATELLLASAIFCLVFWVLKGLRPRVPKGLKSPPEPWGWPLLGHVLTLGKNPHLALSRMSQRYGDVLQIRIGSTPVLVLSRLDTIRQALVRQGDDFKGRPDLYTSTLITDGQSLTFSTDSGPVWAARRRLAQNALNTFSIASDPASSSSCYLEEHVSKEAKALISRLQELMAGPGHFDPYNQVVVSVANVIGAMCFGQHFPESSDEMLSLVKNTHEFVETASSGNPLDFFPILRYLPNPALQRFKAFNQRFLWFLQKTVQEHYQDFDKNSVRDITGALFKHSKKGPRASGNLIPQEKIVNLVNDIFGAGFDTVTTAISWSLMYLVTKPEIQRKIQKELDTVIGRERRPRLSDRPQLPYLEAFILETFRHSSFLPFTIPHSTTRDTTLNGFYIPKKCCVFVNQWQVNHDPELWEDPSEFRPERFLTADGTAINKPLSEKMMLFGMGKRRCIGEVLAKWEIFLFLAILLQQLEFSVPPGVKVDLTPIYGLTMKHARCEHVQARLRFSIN
T1 sequence (P33261 whole entry): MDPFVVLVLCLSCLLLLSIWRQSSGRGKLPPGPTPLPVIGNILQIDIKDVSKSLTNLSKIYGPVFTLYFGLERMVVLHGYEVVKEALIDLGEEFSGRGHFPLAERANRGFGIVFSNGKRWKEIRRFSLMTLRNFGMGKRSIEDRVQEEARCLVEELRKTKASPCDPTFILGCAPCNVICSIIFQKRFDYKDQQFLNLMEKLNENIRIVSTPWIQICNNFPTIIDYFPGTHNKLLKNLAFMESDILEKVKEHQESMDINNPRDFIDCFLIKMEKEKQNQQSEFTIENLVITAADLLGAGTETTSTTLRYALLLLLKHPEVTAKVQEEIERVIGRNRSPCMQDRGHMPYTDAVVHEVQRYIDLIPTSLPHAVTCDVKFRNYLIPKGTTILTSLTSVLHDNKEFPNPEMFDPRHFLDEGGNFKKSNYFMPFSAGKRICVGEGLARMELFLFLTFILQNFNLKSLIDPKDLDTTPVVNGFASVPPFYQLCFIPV

The half-life is how long it takes for the measured level to halve. One may read the AUC as concentration integrated over time. By bioavailability is commonly meant dose-corrected exposure relative to a reference, in per cent. Broadly, the Cmax is the peak of the concentration-time curve. `COc1ccc2[nH]c([S+]([O-])Cc3ncc(C)c(OC)c3C)nc2c1` (centres unmarked) [Omeprazole, omeprazole]: the half-life in “in vivo” (uPA(+/+)/SCID, po, t 1/2 Elimination phase) was 61.8 min; in the series “in vivo” (uPA(−/−)/SCID, iv, t 1/2 Distribution phase) it was 14.4 min; in the series “in vivo” (uPA(−/−)/SCID, iv, t 1/2 Elimination phase) it was 58.3 min; in the series on CYP2D6 (t 1/2 Distribution phase), 18 min; in the series with CYP2D6 (t 1/2 Elimination phase), 93 min. Besides, the exposure (AUC) in “in vivo” (uPA(−/−)/SCID, iv) amounted to 840 ng·h/mL; in the series “in vivo” (uPA(−/−)/SCID, po), 114 ng·h/mL; in series [1], 322 ng·h/mL; in the series on CYP2D6 it was 964 ng·h/mL. The bioavailability in the series “in vivo” (uPA(−/−)/SCID, po, Bioavailability) stood at 1.36%. Moreover, the maximum concentration (Cmax) in “in vivo” (uPA(−/−)/SCID, po, Cmax) was determined as 94 ng/mL.

With `Fc1ccc([C@@H]2CCNC[C@H]2COc2ccc3c(c2)OCO3)cc1` [paroxetine, Paroxetine], the “inhibition of the metabolic activity of CYP1A2” value at CYP1A2 was “inhibition”. Besides, the “inhibition of the metabolic activity of CYP2C19” value against CYP2C19 was “inhibition”. Also, the “inhibition of the metabolic activity of CYP3A4” value on CYP3A4 is given as “inhibition”.
